Data from PubChem BioAssay (NCI).
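Exposure lasted 48 hours, with cells grown in 96-well plates and compounds tested at five concentrations. The concentration for 50% growth inhibition is given as GI50. TGI: concentration producing complete growth inhibition.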

Experiments:
Experiment in all cases: inhibition of tumour cell growth, NCI panel, 48 h
[1] = system: IGROV1 ovarian
[2] = system: PC-3 prostate
[3] = system: K-562 leukemia
[4] = system: BT-549 breast
[5] = system: M14 melanoma
[6] = system: COLO 205 colon
[7] = system: HS 578T breast
[8] = system: SF-268 CNS
[9] = system: SF-539 CNS
[10] = system: SR leukemia

Molecule COc1ccc(C(=O)C(CN(C)C)c2ccccc2)cc1 (configuration not stated) has a GI50 [1] of 2.18 µM, a TGI [1] of 5.74 µM and a GI50 [2] of 4.6 µM. It also gave a TGI [2] of 17.4 µM, a GI50 [3] of 4.17 µM and a TGI [3] of over 100 µM. The GI50 [4] was 1.76 µM, the TGI [4] was 4.56 µM and the GI50 [5] was 1.68 µM. It also gave a TGI [5] of 3.33 µM, a GI50 [6] of 2.26 µM and a TGI [6] of 4.21 µM. The GI50 [7] was 1.95 µM, the TGI [7] was 6.17 µM and the GI50 [8] was 2.17 µM. It also gave a TGI [8] of 4.86 µM, a GI50 [9] of 5.07 µM and a TGI [9] of 16.6 µM.
In the case of COC(=O)C1=C(c2cc(OC)c(OC)c(OC)c2)OC(c2cc(OC)c(OC)c(OC)c2)C1 (configuration not stated), the TGI [1] is reported as 46 µM, the TGI [3] is reported as over 100 µM and the TGI [5] is reported as 50 µM. For the same molecule, the TGI [6] was 33 µM, the TGI [8] was over 100 µM and the TGI [10] was 60 µM. For the same molecule, the TGI [9] was 75.1 µM.
Molecule COc1cccc(C2N3CCCCC3[C@@H]3c4[nH]c5ccccc5c4CCN23)c1OC (some centres not stated) has a TGI [1] of 34.7 µM, a TGI [3] of 30.1 µM and a TGI [5] of 29.6 µM. For the same molecule, the TGI [6] was 29.2 µM, the TGI [8] was 23.7 µM and the TGI [9] was 28.5 µM.
Work on C/C(CC(=O)Nc1cc(Cl)c(Cl)cc1Cl)=N\NS(=O)(=O)c1ccc(C)cc1 yielded a TGI [1] of over 100 µM, a TGI [3] of over 100 µM and a TGI [5] of 91.4 µM. It also gave a TGI [6] of 61.1 µM, a TGI [8] of over 100 µM and a TGI [9] of 85.8 µM.
CCOC(=O)CCC(NC(=O)c1ccc(Nc2nc3cc(N)cc(N)c3nc2-c2ccccc2)cc1)C(=O)OCC (configuration not stated) gave a GI50 [1] of 22.6 µM, a TGI [1] of over 94.7 µM and a GI50 [2] of 20.5 µM. The TGI [2] was 89 µM, the GI50 [3] was 42.5 µM and the TGI [3] was over 100 µM. The GI50 [4] was 40.1 µM, the TGI [4] was over 100 µM and the GI50 [5] was 11.9 µM. For the same molecule, the TGI [5] was over 24.4 µM, the GI50 [6] was over 29.7 µM and the TGI [6] was over 100 µM. It also gave a GI50 [7] of 33.3 µM, a TGI [7] of 75 µM and a GI50 [8] of 34.2 µM. For the same molecule, the TGI [8] was over 100 µM, the GI50 [9] was 27.3 µM and the TGI [9] was over 100 µM.
O=[P+](O)c1cc2c3ccccc3ccc2c2ccccc12 gave a TGI [1] of over 100 µM, a TGI [3] of over 100 µM and a TGI [5] of over 100 µM. The TGI [6] was over 100 µM, the TGI [8] was over 100 µM and the TGI [9] was over 100 µM.
Work on Nc1ccc(C(=O)N/C(=C\c2ccc3c(c2)OCO3)c2nc3ccc4c(c3[nH]2)C(=O)c2ccccc2C4=O)cc1 yielded a TGI [1] of over 100 µM, a TGI [3] of over 100 µM and a TGI [5] of over 100 µM. The TGI [6] was over 100 µM, the TGI [8] was over 100 µM and the TGI [9] was over 100 µM.
Work on O=C(c1nc2ccccc2[nH]1)C1C(c2cccc([N+](=O)[O-])c2)C2CC3CCCCC3N2[C@@]12C(=O)Nc1cc(Cl)ccc12 (some centres not stated) yielded a GI50 [1] of 1.54 µM, a TGI [1] of 3.69 µM and a GI50 [2] of 1.3 µM. It also gave a TGI [2] of 4.4 µM, a GI50 [3] of 2.6 µM and a TGI [3] of over 100 µM. For the same molecule, the GI50 [4] was 1.77 µM, the TGI [4] was 4.36 µM and the GI50 [7] was 1.63 µM. For the same molecule, the TGI [7] was 4.41 µM, the GI50 [8] was 2.11 µM and the TGI [8] was 5.43 µM. It also gave a GI50 [10] of 2.23 µM, a TGI [10] of 9.25 µM and a GI50 [9] of 1.69 µM. The TGI [9] was 3.19 µM.
For COc1ccccc1NC(=O)NS(=O)(=O)c1ccccc1, the TGI [5] was over 100 µM, the TGI [6] was over 100 µM and the TGI [8] was over 100 µM. It also gave a TGI [9] of over 100 µM.
Work on CC(=O)OC1CC2C(C)(C)C(=O)C=C[C@]2(C)C2CCC3(C)C(=CCC3[C@H](CO)C[C@H](O)C(=O)C(C)(C)O)[C@]12C (some centres not stated) yielded a TGI [1] of 49.1 µM, a TGI [3] of over 100 µM and a TGI [5] of 45.6 µM. The TGI [6] was over 100 µM, the TGI [8] was 82.2 µM and the TGI [10] was 86.2 µM. For the same molecule, the TGI [9] was 35.1 µM.
C=CCN1C(=O)C/C(=C2/CCC(=O)N2CC=C)C1=O showed a TGI [1] of over 100 µM, a TGI [3] of over 100 µM and a TGI [5] of over 100 µM. For the same molecule, the TGI [6] was over 100 µM, the TGI [8] was over 100 µM and the TGI [10] was over 100 µM. It also gave a TGI [9] of over 100 µM.
Work on c1cc[c]([Sn]([O]c2cccc3cccnc23)([c]2ccccc2)[c]2ccccc2)cc1 yielded a GI50 [1] of 0.0196 µM, a TGI [1] of 0.0428 µM and a GI50 [3] of under 0.01 µM. It also gave a TGI [3] of 0.0521 µM, a GI50 [5] of 0.0166 µM and a TGI [5] of 0.0319 µM. The GI50 [6] was 0.0161 µM, the TGI [6] was 0.0302 µM and the GI50 [8] was 0.0128 µM. It also gave a TGI [8] of 0.0275 µM, a GI50 [9] of 0.0195 µM and a TGI [9] of 0.0387 µM.
With NC(=S)c1cn(C2OC(CO)C(O)C2O)c2ncnc(N)c12 (configuration not stated) the GI50 [1] was 0.136 µM, the TGI [1] was 0.586 µM and the GI50 [2] was 0.283 µM. The TGI [2] was over 20.1 µM, the GI50 [3] was 0.199 µM and the GI50 [4] was 0.149 µM. The TGI [4] was 1.65 µM, the GI50 [5] was 0.0989 µM and the TGI [5] was 0.354 µM. The GI50 [7] was 0.254 µM, the TGI [7] was 2.54 µM and the GI50 [8] was 0.284 µM. It also gave a TGI [8] of 3.4 µM, a GI50 [10] of 0.0625 µM and a GI50 [9] of 0.27 µM. The TGI [9] was 1.55 µM.
Molecule O=C(Nc1ccc(Oc2cccc(Cl)c2)c(Cl)c1)c1cccnc1 has a GI50 [1] of 2.76 µM, a TGI [1] of over 50 µM and a GI50 [3] of 0.255 µM. For the same molecule, the TGI [3] was over 50 µM, the GI50 [4] was 5.42 µM and the TGI [4] was 44.3 µM. It also gave a GI50 [5] of 1.38 µM, a TGI [5] of 29 µM and a GI50 [6] of 1.39 µM. For the same molecule, the TGI [6] was 8.1 µM, the GI50 [7] was 1.83 µM and the TGI [7] was 35.5 µM. The GI50 [8] was 3.71 µM, the TGI [8] was 46.6 µM and the GI50 [10] was 0.395 µM. For the same molecule, the TGI [10] was over 50 µM, the GI50 [9] was 1.49 µM and the TGI [9] was 7.54 µM.
Work on O=C1/C(=C/c2ccc(Cl)cc2)COc2ccc(Br)cc21 yielded a TGI [1] of over 100 µM, a TGI [3] of over 100 µM and a TGI [6] of over 100 µM. It also gave a TGI [8] of over 100 µM and a TGI [9] of over 100 µM.
O=C(N/N=C\c1cc(Br)cc(Br)c1O)N/N=C/c1cc(Br)cc(Br)c1O gave a GI50 [2] of 2.9 µM, a TGI [2] of 16.7 µM and a GI50 [3] of 0.7 µM. It also gave a TGI [3] of 14.3 µM, a GI50 [4] of 5.54 µM and a TGI [4] of 25.7 µM. The GI50 [5] was 4.29 µM, the TGI [5] was 19 µM and the GI50 [6] was 3.92 µM. For the same molecule, the TGI [6] was 14.6 µM, the GI50 [7] was 19.8 µM and the TGI [7] was 51.2 µM. The GI50 [8] was 1.47 µM, the TGI [8] was 12 µM and the GI50 [10] was 1.13 µM. For the same molecule, the TGI [10] was 26.7 µM, the GI50 [9] was 1.73 µM and the TGI [9] was 11 µM.
COC(=O)CCCCCCCCC(=O)c1c(C)[nH]c(/C=C2\N=C(c3ccc[nH]3)C=C2OC)c1C was tested, and the GI50 [1] was over 67.3 µM, the TGI [1] was over 100 µM and the GI50 [2] was 4.88 µM. It also gave a TGI [2] of over 100 µM, a GI50 [3] of 1.08 µM and a TGI [3] of over 34.2 µM. It also gave a GI50 [4] of 3.39 µM, a TGI [4] of over 100 µM and a GI50 [5] of 2.64 µM. It also gave a TGI [5] of over 21.3 µM, a GI50 [6] of over 100 µM and a TGI [6] of over 100 µM. The GI50 [7] was over 33 µM, the TGI [7] was over 100 µM and the GI50 [8] was over 20.6 µM. It also gave a TGI [8] of over 100 µM, a GI50 [9] of over 55.1 µM and a TGI [9] of over 100 µM.
Cc1ccc(S(=O)(=O)N/N=C/CN2C(=O)c3ccccc3C2=O)cc1 gave a TGI [1] of over 100 µM, a TGI [3] of over 100 µM and a TGI [5] of over 100 µM. For the same molecule, the TGI [6] was over 100 µM, the TGI [10] was over 100 µM and the TGI [9] was over 100 µM.
For Cc1nc(=O)n2c(c1C(=O)Nc1ccc(Cl)cc1)NCCC2, the TGI [1] was over 100 µM, the TGI [3] was over 100 µM and the TGI [5] was over 100 µM. For the same molecule, the TGI [6] was over 100 µM, the TGI [8] was over 100 µM and the TGI [10] was over 100 µM. It also gave a TGI [9] of over 100 µM.
Work on CC1CC(=O)CC[C@@H]1OCc1ccccc1 (some centres not stated) yielded a TGI [1] of over 100 µM, a TGI [3] of over 100 µM and a TGI [5] of over 100 µM. The TGI [6] was over 100 µM, the TGI [8] was over 100 µM and the TGI [9] was over 100 µM.
